Measurements as given in BindingDB's records for doi:10.1016/j.bmcl.2003.08.049 (Merck Research Laboratories, 2003).

Biological target: T1, Dimer of Gag-Pol polyprotein [489-587,Q496K] (Human immunodeficiency virus 1, UniProt P12497, Q496K)
T1 construct: 489-587
Assay: Protease Inhibition Assay
Settings: pH 5.5; 30 °C
Description: Assay of HIV protease inhibition was performed by peptide cleavage using the substrate Val-Ser-Gln-Asn-beta-naphthylalanine*Pro-Ile-Val. Products of the cleavage reaction were quantified by HPLC detection, and data were fit to nonlinear least squares equations for determination of steady-state Michaelis-Menten kinetics.

Work on O=C(N[C@H]1c2ccccc2OC[C@H]1O)[C@H](Cc1cccnc1)C[C@H](O)CN1CCN(Cc2ccc(-c3ccccc3)o2)C[C@H]1C(=O)NCC(F)(F)F [(2S)-1-[(2S,4R)-2-hydroxy-4-{[(3S,4S)-3-hydroxy-3,4-dihydro-2H-1-benzopyran-4-yl]carbamoyl}-4-(pyridin-3-ylmethyl)butyl]-4-[(5-phenylfuran-2-yl)methyl]-N-(2,2,2-trifluoroethyl)piperazine-2-carboxamide] yielded an IC50 of 0.02 nM.
